According to PubChem BioAssay AID2060605 (Molecular Pharmacology Branch, DTP, NCI, 2025):

Test system: 947758-054-R-J2-PDC spheroid growth, percent test/control
Experiment: Anticancer human tumor 947758-054-R-J2-PDC patient-derived colon adenocarcinoma cell line growth inhibition [CLK]
Conditions: spheroids with HUVEC and MSC; for IC50: curve of first compound; for viability, T/C: stronger effect = lower value; active = viability on the fitted dose curve at most 10% of control; inactive = the rest
From the text: A high-throughput screen of multi-cell type tumor spheroids was designed to identify active combinations of […] and targeted small molecules. Complex spheroids include a stromal component modeled by human endothelial cells (HUVEC) and fibroblasts modeled by human mesenchymal stem cells (MSCs). The concentration ranges selected for each drug and investigational agent were based upon clinically achievable concentrations if the clinical Cmax of the agent was known.
Compounds. The drugs and investigational agents: cirtuvivint (SM08502; NSC835563), CC-671 (NSC850746), vemurafenib (NSC761431), tapotoclax (NSC804041), sotorasib (NSC818433), adagrasib (NSC831453), MRTX-1133 (NSC836407), BAY2416964 (NSC825713), copanlisib (NSC816437), inavolisib (NSC800729), abemaciclib (NSC768073), osimertinib (NSC779217), entinostat (NSC756642), eltanexor (KPT-8602, NSC794443), venetoclax (NSC766270), ceralasertib (NSC777638), bortezomib (NSC756655), olaparib (NSC753686), talazoparib (NSC767125), alisertib (NSC759677), peposertib (NSC802822), gemcitabine (NSC613327), 5-fluorouracil (NSC19893), SN-38 (NSC673596), oxaliplatin (NSC266046), paclitaxel (NSC125973), and doxorubicin (NSC123127), were obtained from the National Cancer Institute (NCI) Developmental Therapeutics Program Chemical Repository. The FDA-approved anticancer drug set is available from the Developmental Therapeutics Program at https://dtp.cancer.gov/organization/dscb/obtaining/available plates.htm. […] The stock solutions were prepared in dimethyl sulfoxide (DMSO, Sigma-Aldrich, St. Louis, MO, cat. D2650), except for the platinum complexes which were prepared in saline (Quality Biological, Gaithersburg, MD, cat. 114-055-101), at 800-fold the tested concentration and stored at -70 degrees C prior to their use. All drugs and investigational agents were tested over a range starting from a high concentration at or near the clinical Cmax and decreasing in half-log increments. If the clinical Cmax for an agent had not been determined, the highest concentration tested was 10 microM.
Cell Culture. All cells were maintained in an incubator at 37 degrees C and 5% CO2 with 95% humidity. The PDC lines were cultured according to standard operating procedures established by the NCI PDMR. Briefly, all PDCs were thawed and cultured in Matrigel-coated flasks prepared with a working solution of 1X Ham's F-12 nutrient mix, without supplementation (Invitrogen, Waltham, MA, cat. 11765054), 100 U/mL penicillin-streptomycin (Invitrogen, cat. 15140122), and 2.5% Matrigel (Corning Inc., Corning, NY, cat. 354248) for the first three passages. The 947758-054-R-J2-PDC line was cultured in 6B/Colon 1A media, which includes advanced DMEM/F-12 (Thermo Fisher Scientific, cat. 12634028), 10 mM HEPES (Thermo Fisher Scientific, cat. 15630080), 1X GlutaMAX supplement (Thermo Fisher Scientific, cat. 35050061), 0.1 mg/mL primocin (InvivoGen, cat. ant-pm-2), 10% defined fetal bovine serum, heat inactivated (HyClone Laboratories Inc., cat. SH30070.03HI), 1.25 mM N-Acetyl-L-cysteine (Sigma-Aldrich, cat. A9165), 10 mM nicotinamide (Sigma-Aldrich, cat. N0636), 1X B-27 supplement (Thermo Fisher Scientific, cat. 17504044), 1X N-2 supplement (Thermo Fisher Scientific, cat. 17502048), and 10 microM Y-27632 dihydrochloride (Tocris Bioscience, cat. 1254). The 876862-298-R-J1-PDC was cultured in 6E media, which includes all 6B/Colon 1A media components plus 50% L-WRN conditioned media (ATCC, cat. CRL-3276), 50 ng/mL recombinant human EGF recombinant protein (hEGF; Thermo Fisher Scientific, cat. PHG0311), 10 ng/mL recombinant human fibroblast growth factor 10 (hGFG-10; PeproTech, cat. 100-26), 1 ng/mL recombinant human fibroblast growth factor 2 (hFGF-2; PeproTech, cat. 100-18B), and 1 µM prostaglandin E2 (PGE2; Tocris, cat. 2296). The 227483-062-R1-J1-PDC line was cultured in Panc media, containing all 6E components except hFGF-2, with the addition of 500 nM SB-431542 (Selleckchem, cat. S1067) and 10 nM gastrin (Tocris, cat. 3006). […]

[1] = second compound 0.0316 µM, first compound 0.0316 µM
[2] = second compound 0.0316 µM, first compound 0.1 µM
[3] = second compound 0.0316 µM, first compound 0.316 µM
[4] = second compound 0.0316 µM, first compound 1 µM
[5] = second compound 0.0316 µM, first compound 3.16 µM
[6] = second compound 0.0316 µM, first compound 10 µM
[7] = second compound 0.1 µM, first compound 0.0316 µM
[8] = second compound 0.1 µM, first compound 0.1 µM
[9] = second compound 0.1 µM, first compound 0.316 µM
[10] = second compound 0.1 µM, first compound 1 µM
[11] = second compound 0.1 µM, first compound 3.16 µM
[12] = second compound 0.1 µM, first compound 10 µM
[13] = second compound 0.316 µM, first compound 0.0316 µM
[14] = second compound 0.316 µM, first compound 0.1 µM
[15] = second compound 0.316 µM, first compound 0.316 µM
[16] = second compound 0.316 µM, first compound 1 µM
[17] = second compound 0.316 µM, first compound 3.16 µM
[18] = second compound 0.316 µM, first compound 10 µM
[19] = second compound 1 µM, first compound 0.0316 µM
[20] = second compound 1 µM, first compound 0.1 µM
[21] = second compound 1 µM, first compound 0.316 µM
[22] = second compound 1 µM, first compound 1 µM
[23] = second compound 1 µM, first compound 3.16 µM
[24] = second compound 1 µM, first compound 10 µM
[25] = second compound 3.16 µM, first compound 0.0316 µM
[26] = second compound 3.16 µM, first compound 0.1 µM
[27] = second compound 3.16 µM, first compound 0.316 µM
[28] = second compound 3.16 µM, first compound 1 µM
[29] = second compound 3.16 µM, first compound 3.16 µM
[30] = second compound 3.16 µM, first compound 10 µM
[31] = second compound 10 µM, first compound 0.0316 µM
[32] = second compound 10 µM, first compound 0.1 µM
[33] = second compound 10 µM, first compound 0.316 µM
[34] = second compound 10 µM, first compound 1 µM
[35] = second compound 10 µM, first compound 3.16 µM
[36] = second compound 10 µM, first compound 10 µM
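Also: spheroids exposed to compounds for one week before readout.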
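For viability, T/C in this document: 100% = DMSO vehicle control wells.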

C#Cc1c(F)ccc2cc(O)cc(-c3ncc4c(N5CC6CCC(C5)N6)nc(OCC56CCCN5CC(F)C6)nc4c3F)c12 (centres undefined) + CN1CCN(c2cc(C(=O)Nc3cc4cc(-c5cnn(C)c5)ccc4cn3)ccn2)CC1
> 10000 nM: IC50 (second compound 0.0316 µM) | IC50 (second compound 0.1 µM)
active: viability, T/C [13] 5.41% | viability, T/C [14] 7.64% | viability, T/C [15] 7.09% | viability, T/C [16] 6.71% | viability, T/C [17] 6% | viability, T/C [18] 5.97% | viability, T/C [19] 0.17% | viability, T/C [20] 0.21% | viability, T/C [21] 0.18% | viability, T/C [22] 0.22% | viability, T/C [23] 0.19% | viability, T/C [24] 0.21% | viability, T/C [25] 0.19% | viability, T/C [26] 0.24% | viability, T/C [27] 0.24% | viability, T/C [28] 0.2% | viability, T/C [29] 0.23% | viability, T/C [30] 0.67% | viability, T/C [31] 0.38% | viability, T/C [32] 0.42% | viability, T/C [33] 0.33% | viability, T/C [34] 0.37% | viability, T/C [35] 0.37% | viability, T/C [36] 0.26%
< 31.6 nM: IC50 (second compound 0.316 µM) | IC50 (second compound 1 µM) | IC50 (second compound 3.16 µM) | IC50 (second compound 10 µM)
inactive: viability, T/C [1] 103% | viability, T/C [2] 123% | viability, T/C [3] 126% | viability, T/C [4] 73.3% | viability, T/C [5] 107% | viability, T/C [6] 118% | viability, T/C [7] 145% | viability, T/C [8] 214% | viability, T/C [9] 187% | viability, T/C [10] 214% | viability, T/C [11] 216% | viability, T/C [12] 148%

CC(CO)NC(=O)c1cc(-c2ccc(Cl)cc2)nn(-c2cnn(C)c2)c1=O (centres undefined) + CN1CCN(c2cc(C(=O)Nc3cc4cc(-c5cnn(C)c5)ccc4cn3)ccn2)CC1
> 10000 nM: IC50 (second compound 0.0316 µM) | IC50 (second compound 0.1 µM)
inactive: viability, T/C [1] 91.8% | viability, T/C [2] 112% | viability, T/C [3] 105% | viability, T/C [4] 110% | viability, T/C [5] 126% | viability, T/C [6] 155% | viability, T/C [7] 184% | viability, T/C [8] 179% | viability, T/C [9] 175% | viability, T/C [10] 199% | viability, T/C [11] 182% | viability, T/C [12] 133%
< 31.6 nM: IC50 (second compound 0.316 µM) | IC50 (second compound 1 µM) | IC50 (second compound 3.16 µM) | IC50 (second compound 10 µM)
active: viability, T/C [13] 5.49% | viability, T/C [14] 6.26% | viability, T/C [15] 5.8% | viability, T/C [16] 5.69% | viability, T/C [17] 4.92% | viability, T/C [18] 2.57% | viability, T/C [19] 0.15% | viability, T/C [20] 0.19% | viability, T/C [21] 0.18% | viability, T/C [22] 0.36% | viability, T/C [23] 0.15% | viability, T/C [24] 0.14% | viability, T/C [25] 0.28% | viability, T/C [26] 0.97% | viability, T/C [27] 0.25% | viability, T/C [28] 0.24% | viability, T/C [29] 0.25% | viability, T/C [30] 0.31% | viability, T/C [31] 0.4% | viability, T/C [32] 0.42% | viability, T/C [33] 0.35% | viability, T/C [34] 0.41% | viability, T/C [35] 0.42% | viability, T/C [36] 0.36%
